SMILES strings stand for the structures.

The target in assay [1] is T1, S. stipitis xylose transporter RGT2, SEQ ID NO: 64, in S. cerevisiae Y-50049-YXI-RGT2 (NRRL Y-50465) (Scheffersomyces stipitis, UniProt J9PF54).
T1 construct: whole-cell xylose uptake; S. stipitis CUG codons are read as Leu in this host
T1 sequence (J9PF54 1-528): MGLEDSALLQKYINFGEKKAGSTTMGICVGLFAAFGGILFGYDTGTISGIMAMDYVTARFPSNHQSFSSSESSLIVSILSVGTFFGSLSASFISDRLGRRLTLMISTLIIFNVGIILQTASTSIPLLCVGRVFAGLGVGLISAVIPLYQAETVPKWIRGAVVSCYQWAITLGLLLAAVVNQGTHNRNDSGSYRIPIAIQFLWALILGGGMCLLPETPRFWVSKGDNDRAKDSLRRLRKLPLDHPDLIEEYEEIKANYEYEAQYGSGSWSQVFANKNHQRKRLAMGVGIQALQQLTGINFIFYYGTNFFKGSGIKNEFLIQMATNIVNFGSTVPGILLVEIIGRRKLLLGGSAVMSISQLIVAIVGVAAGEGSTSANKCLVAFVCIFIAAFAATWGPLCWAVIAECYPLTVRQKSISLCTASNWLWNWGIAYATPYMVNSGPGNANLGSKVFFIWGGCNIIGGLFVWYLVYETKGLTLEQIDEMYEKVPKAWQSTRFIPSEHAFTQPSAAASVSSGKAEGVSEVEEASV
As to the kind of experiment: Aerobic xylose uptake kinetics (Lineweaver-Burk), Y-50049-YXI-RGT2. The assay is classed as cell-based. As to conditions: whole cells, 30° C. From the text:
(§1) A portion of promoter and terminator for PGK1 was amplified from S. cerevisiae NRRL Y-50049 genomic DNA using primers PGK_PL/PGK_PR and PGK_TL/PGK_TR, as detailed in the Description of Sequences above. Amplified PGK1 fragments were cloned into vector pRS42H resulting in pRS42H -PGK1 promoter-terminator. Six putative xylose transporter genes XUT4, XUT5, XUT6, XUT7, RGT2, and SUT4 were amplified using various primers from the genomic DNA of S. stipitis. Each xylose transporter gene was cloned into the S. cerevisiae expression vector pRS42H-PGK1 promoter-terminator with proper restriction endonuclease sites designed. All DNA oligos were synthesized by IDT (Coralville, Iowa). […]
(§2) The relative performance of yeast strains Y-50746, Y-50747, Y-50748, Y-50749, Y-50465, and Y-50466 containing a xylose isomerase gene and a xylose xylose transporter gene was further assessed in cell populations that were first grown aerobically on xylose and then transferred into fresh culture medium at high cell density. […] Aerobic xylose uptake rate was assessed for the host strain Y-50049−YXI and each of its six xylose transporter-expressing derivatives. […] Once xylose was added to cultures, the reaction timing began, and the first sample was immediately taken, diluted for optical density reading, and centrifuged (10,000 rpm, 6 min). […]

The target in assay [2] is T2, S. stipitis xylose transporter XUT5, SEQ ID NO: 66, in S. cerevisiae Y-50049-YXI-XUT5 (NRRL Y-50746) (Scheffersomyces stipitis, UniProt A3LY79).
T2 construct: whole-cell xylose uptake; S. stipitis CUG codons are read as Leu in this host
As to the kind of experiment: Aerobic xylose uptake kinetics (Lineweaver-Burk), Y-50049-YXI-XUT5. The following applies: whole cells, 30° C. The format is cell-based.
Description: as §1, §2

The target in assay [3] is T3, S. stipitis xylose transporter XUT7, SEQ ID NO: 65, in S. cerevisiae Y-50049-YXI-XUT7 (NRRL Y-50466) (Scheffersomyces stipitis, UniProt J9PER1).
T3 construct: whole-cell xylose uptake; S. stipitis CUG codons are read as Leu in this host
T3 sequence (J9PER1 1-418): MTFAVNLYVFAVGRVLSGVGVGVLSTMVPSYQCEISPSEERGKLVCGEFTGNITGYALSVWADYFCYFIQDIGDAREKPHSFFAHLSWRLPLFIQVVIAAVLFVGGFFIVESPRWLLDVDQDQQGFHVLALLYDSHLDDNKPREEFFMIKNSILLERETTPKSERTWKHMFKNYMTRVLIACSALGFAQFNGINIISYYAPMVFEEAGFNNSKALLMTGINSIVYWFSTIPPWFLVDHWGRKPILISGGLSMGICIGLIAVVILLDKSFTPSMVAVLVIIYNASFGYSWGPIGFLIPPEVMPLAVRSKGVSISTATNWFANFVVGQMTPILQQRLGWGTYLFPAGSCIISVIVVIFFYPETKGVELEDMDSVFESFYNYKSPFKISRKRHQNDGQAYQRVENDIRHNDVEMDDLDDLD
Description: Aerobic xylose uptake kinetics (Lineweaver-Burk), Y-50049-YXI-XUT7. The assay is classed as cell-based. As to conditions: whole cells, 30° C.
Description: as §1, §2

Assay [4] deals with T4, S. stipitis xylose transporter SUT4, SEQ ID NO: 69, in S. cerevisiae Y-50049-YXI-SUT4 (NRRL Y-50748) (Scheffersomyces stipitis, UniProt J9Q8Z9).
T4 construct: whole-cell xylose uptake; S. stipitis CUG codons are read as Leu in this host
T4 sequence (J9Q8Z9 1-549): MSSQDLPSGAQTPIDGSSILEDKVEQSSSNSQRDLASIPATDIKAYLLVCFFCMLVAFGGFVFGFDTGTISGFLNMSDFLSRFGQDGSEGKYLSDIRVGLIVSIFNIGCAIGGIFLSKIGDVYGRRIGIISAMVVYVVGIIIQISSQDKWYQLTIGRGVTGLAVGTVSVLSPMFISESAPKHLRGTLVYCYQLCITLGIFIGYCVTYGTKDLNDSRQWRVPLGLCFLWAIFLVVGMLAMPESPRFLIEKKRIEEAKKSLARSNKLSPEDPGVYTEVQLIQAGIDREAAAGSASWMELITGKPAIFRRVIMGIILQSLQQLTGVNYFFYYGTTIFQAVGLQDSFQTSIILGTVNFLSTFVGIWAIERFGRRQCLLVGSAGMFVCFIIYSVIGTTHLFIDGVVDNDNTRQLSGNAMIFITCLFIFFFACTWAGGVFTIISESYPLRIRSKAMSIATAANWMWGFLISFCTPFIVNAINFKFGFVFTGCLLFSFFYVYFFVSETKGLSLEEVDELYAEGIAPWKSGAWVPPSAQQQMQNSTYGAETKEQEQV
Description: Aerobic xylose uptake kinetics (Lineweaver-Burk), Y-50049-YXI-SUT4. The assay is classed as cell-based. As to conditions: whole cells, 30° C.
Description: as §1, §2

In assay [5] the target is T5, S. stipitis xylose transporter XUT6, SEQ ID NO: 67, in S. cerevisiae Y-50049-YXI-XUT6 (NRRL Y-50749) (Scheffersomyces stipitis, UniProt J9Q9F3).
T5 construct: whole-cell xylose uptake; S. stipitis CUG codons are read as Leu in this host
T5 sequence (J9Q9F3 1-544): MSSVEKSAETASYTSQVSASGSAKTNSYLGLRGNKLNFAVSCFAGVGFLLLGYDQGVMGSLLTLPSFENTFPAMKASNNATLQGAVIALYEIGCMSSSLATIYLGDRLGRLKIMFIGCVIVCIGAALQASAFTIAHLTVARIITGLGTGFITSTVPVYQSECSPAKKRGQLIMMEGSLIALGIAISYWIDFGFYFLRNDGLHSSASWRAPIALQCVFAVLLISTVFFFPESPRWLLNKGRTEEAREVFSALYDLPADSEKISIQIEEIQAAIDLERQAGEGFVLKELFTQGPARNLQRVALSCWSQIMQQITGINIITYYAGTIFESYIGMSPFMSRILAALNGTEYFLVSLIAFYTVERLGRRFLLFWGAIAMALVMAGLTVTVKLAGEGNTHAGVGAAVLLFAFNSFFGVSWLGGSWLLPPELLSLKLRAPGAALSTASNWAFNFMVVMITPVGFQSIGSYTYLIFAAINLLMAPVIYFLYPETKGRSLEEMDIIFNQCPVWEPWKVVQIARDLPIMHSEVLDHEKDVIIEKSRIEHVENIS
Description: Aerobic xylose uptake kinetics (Lineweaver-Burk), Y-50049-YXI-XUT6. The assay is classed as cell-based. The following applies: whole cells, 30° C.
Description: as §1, §2

Assay [6] deals with native xylose uptake of S. cerevisiae Y-50049-YXI (control host strain, YXI xylose isomerase SEQ ID NO: 63, no added xylose transporter gene). Description: Aerobic xylose uptake kinetics (Lineweaver-Burk), host strain Y-50049-YXI (control). The assay is classed as cell-based. The following applies: whole cells, 30° C. From the text: The relative performance of yeast strains Y-50746, Y-50747, Y-50748, Y-50749, Y-50465, and Y-50466 containing a xylose isomerase gene and a xylose xylose transporter gene was further assessed in cell populations that were first grown aerobically on xylose and then transferred into fresh culture medium at high cell density. Under these conditions a high metabolic carbon demand creates the potential for transport to be a limiting factor and amplifies volumetric xylose consumption from the medium. Aerobic xylose uptake rate was assessed for the host strain Y-50049−YXI and each of its six xylose transporter-expressing derivatives. […] Once xylose was added to cultures, the reaction timing began, and the first sample was immediately taken, diluted for optical density reading, and centrifuged (10,000 rpm, 6 min). […] Subsequent samples were collected at 2 h, 4 h, 6 h, and the specific xylose consumption rate (V) was calculated as the rate of decline in xylose concentration (X)/per dry cell concentration (b), assuming the linear correlation of dry yeast biomass concentration with absorbance, b=(0.167 g/L). […] The relative statistical differences between strain performances due to the specific transporter gene expressed were determined by running a two-way analysis of variance of V as a function of the transporter gene and the initial xylose concentration. […]

In assay [7] the test system is S. stipitis Y-7124 xylose proton symporters. As to conditions: associated with S. stipitis symport, approximate (~); cited from earlier work.
For assay [8], the target named is T6, S. stipitis xylose transporter XUT4, SEQ ID NO: 68, in S. cerevisiae Y-50049-YXI-XUT4 (NRRL Y-50747) (Scheffersomyces stipitis, UniProt J9PED0).
T6 construct: whole-cell xylose uptake; S. stipitis CUG codons are read as Leu in this host
As to the kind of experiment: Aerobic xylose uptake kinetics (Lineweaver-Burk), Y-50049-YXI-XUT4. The assay is classed as cell-based. As to conditions: whole cells, 30° C.
Description: as §1, §2

T2 sequence (A3LY79 entry or part of it): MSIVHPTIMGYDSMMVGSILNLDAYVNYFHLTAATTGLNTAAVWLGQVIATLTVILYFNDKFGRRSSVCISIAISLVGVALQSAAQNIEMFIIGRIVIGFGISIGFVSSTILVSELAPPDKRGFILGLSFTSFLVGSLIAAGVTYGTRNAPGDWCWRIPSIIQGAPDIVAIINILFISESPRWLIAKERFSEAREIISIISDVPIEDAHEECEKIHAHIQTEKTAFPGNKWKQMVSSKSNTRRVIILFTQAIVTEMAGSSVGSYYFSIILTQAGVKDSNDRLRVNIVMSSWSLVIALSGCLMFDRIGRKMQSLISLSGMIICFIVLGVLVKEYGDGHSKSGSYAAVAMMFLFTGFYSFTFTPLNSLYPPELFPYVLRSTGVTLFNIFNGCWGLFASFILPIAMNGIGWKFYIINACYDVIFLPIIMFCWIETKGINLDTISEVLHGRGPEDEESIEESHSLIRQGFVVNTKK
T6 sequence (J9PED0 entry or part of it): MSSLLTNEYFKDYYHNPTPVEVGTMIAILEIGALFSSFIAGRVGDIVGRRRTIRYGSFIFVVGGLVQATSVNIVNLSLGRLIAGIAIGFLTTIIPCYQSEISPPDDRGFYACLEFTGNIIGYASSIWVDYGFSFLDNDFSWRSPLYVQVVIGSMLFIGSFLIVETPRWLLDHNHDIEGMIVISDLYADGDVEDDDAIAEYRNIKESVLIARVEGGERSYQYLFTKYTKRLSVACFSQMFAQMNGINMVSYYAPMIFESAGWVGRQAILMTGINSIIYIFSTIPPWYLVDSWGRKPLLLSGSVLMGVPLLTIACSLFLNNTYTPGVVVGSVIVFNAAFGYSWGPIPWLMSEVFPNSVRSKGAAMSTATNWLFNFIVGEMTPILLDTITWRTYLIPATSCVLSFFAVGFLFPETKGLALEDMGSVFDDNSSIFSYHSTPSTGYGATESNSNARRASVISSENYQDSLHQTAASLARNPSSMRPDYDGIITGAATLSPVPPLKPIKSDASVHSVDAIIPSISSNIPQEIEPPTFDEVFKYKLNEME

In general, Km refers to the concentration of substrate that gives half-maximal velocity. On to `OC1OC[C@@H](O)[C@H](O)[C@H]1O` (stereo partly drawn) [xylose, D-xylose], for which the Vmax in assay [1] came to 0.28 g/g/h; in assay [2], 0.88 g/g/h; in assay [3], 0.26 g/g/h; in assay [4], 0.36 g/g/h; in assay [5] it was 0.33 g/g/h; in assay [6], 0.14 g/g/h. Moreover, the Vmax in assay [8] is given as 0.35 g/g/h. For the same molecule, the Michaelis constant (Km) in assay [7] was 0.01 to 0.3 g/L.
